Test results as given in publication PMC7864676 (Journal of pharmacological sciences, 2018).

T1: human organic anion transporter-3 (hOAT3) (Homo sapiens, UniProt Q8TCC7)
T1 sequence (Q8TCC7 1-542): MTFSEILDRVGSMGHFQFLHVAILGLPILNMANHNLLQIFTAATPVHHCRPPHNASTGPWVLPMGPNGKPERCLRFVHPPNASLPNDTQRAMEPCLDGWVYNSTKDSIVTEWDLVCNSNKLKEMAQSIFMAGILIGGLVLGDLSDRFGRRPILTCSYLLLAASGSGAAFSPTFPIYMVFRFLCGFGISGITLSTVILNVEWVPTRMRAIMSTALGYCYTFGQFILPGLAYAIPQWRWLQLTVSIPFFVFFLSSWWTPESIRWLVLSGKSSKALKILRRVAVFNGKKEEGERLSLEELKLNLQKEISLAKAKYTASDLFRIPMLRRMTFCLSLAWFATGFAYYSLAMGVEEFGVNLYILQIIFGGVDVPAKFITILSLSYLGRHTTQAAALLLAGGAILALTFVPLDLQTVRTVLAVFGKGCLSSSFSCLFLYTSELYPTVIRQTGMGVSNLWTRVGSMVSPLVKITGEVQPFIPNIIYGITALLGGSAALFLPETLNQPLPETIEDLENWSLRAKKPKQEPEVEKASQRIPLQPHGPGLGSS


Assays:
[1] = biological target: T1, human organic anion transporter-3 (hOAT3); assay: cis-inhibition of [3H]-estrone sulfate uptake in hOAT3-expressing HEK293 cells; assay type: cell-based
[2] = substrate: C[C@]12CC[C@@H]3c4ccc(OS(=O)(=O)O)cc4CC[C@H]3[C@@H]1CCC2=O; assay: cells, lysate or membranes

Molecule | Ki [1] | Km [2]
C[C@@H]1C[C@H]2[C@@H]3CCC4=CC(=O)C=C[C@]4(C)[C@@]3(F)[C@@H](O)C[C@]2(C)[C@@]1(O)C(=O)CO [dexamethasone] | 47.1 µM | 
human organic anion transporter-3 (hOAT3) (Homo sapiens) (protein) MTFSEILDRVGSMGHFQFLHVAILGLPILNMANHNLLQIFTAATPVHHCRPPHNASTGPWVLPMGPNGKPERCLRFVHPPNASLPNDTQRAMEPCLDGWVYNSTKDSIVTEWDLVCNSNKLKEMAQSIFMAGILIGGLVLGDLSDRFGRRPILTCSYLLLAASGSGAAFSPTFPIYMVFRFLCGFGISGITLSTVILNVEWVPTRMRAIMSTALGYCYTFGQFILPGLAYAIPQWRWLQLTVSIPFFVFFLSSWWTPESIRWLVLSGKSSKALKILRRVAVFNGKKEEGERLSLEELKLNLQKEISLAKAKYTASDLFRIPMLRRMTFCLSLAWFATGFAYYSLAMGVEEFGVNLYILQIIFGGVDVPAKFITILSLSYLGRHTTQAAALLLAGGAILALTFVPLDLQTVRTVLAVFGKGCLSSSFSCLFLYTSELYPTVIRQTGMGVSNLWTRVGSMVSPLVKITGEVQPFIPNIIYGITALLGGSAALFLPETLNQPLPETIEDLENWSLRAKKPKQEPEVEKASQRIPLQPHGPGLGSS |  | 5.07 ± 0.49 µM
